Results from publication PMC9929129, “Towards Translation of PqsR Inverse Agonists: From In Vitro Efficacy Optimization to In Vivo Proof‐of‐Principle” (Advanced Science, 2023).
“And” between values parts separate entries of the source, which are not always exact repeats. Equal values may be shown once.

What was measured:
[1] = Apparent permeability in Calu-3 cell line; assay type: in vitro ADME; conditions: human; air–liquid interface
[2] = Plasma protein binding, murine (equilibrium dialysis); assay type: in vitro ADME, mouse
Experimental: (§1) 1.4.4 Pharmacokinetic and off-target functional assays (Cyprotex)
(§2) Compound 24 was assayed at Cyprotex in functional assays for interference with important off-targets as well as important pharmacokinetic parameters. With the exception of plasma protein binding, a dose-response relationship was studied in order to calculate IC50 values.
(§3) Table S10. Information on in vitro ADMET assays performed at Cyprotex. […]
Plasma protein binding assay (human and Equilibrium dialysis […]
(§4) An increase in the number of colonies of at least two-fold over baseline (mean + SD of the vehicle control) and a dose response indicate a positive response. An […]
(§5) different from the vehicle control.
(§6) Where indicated, S9 fraction from the livers of Aroclor 1254-treated rats were included in the incubation at a final concentration of 4.5%. A NADPH-regenerating system was also included to ensure a steady supply of reducing equivalents.

AhR receptor = biological target: T1, AhR receptor (Homo sapiens, UniProt P35869); assay: AhR nuclear receptor activation, luciferase reporter gene assay; assay type: cell-based
T1 construct: Cyprotex
Experimental: as §1, §2, §3, §4, §5, §6

CYP2C19 = biological target: T2, CYP2C19 (Homo sapiens, UniProt P33261); assay: Cytochrome P450 inhibition assay, CYP2C19; assay type: in vitro ADME; conditions: Metabolic activity
T2 construct: Cyprotex
Experimental: as §1, §2, §3, §4, §5, §6

[3] = biological target: T3, Cav1.2 (L-type) human Ca ion channel (Homo sapiens, UniProt Q13936); assay: cell-based
T3 construct: Eurofins CYL8051QP2DR
Experimental: 1.4.2 Further functional off-target assays (Eurofins)
Table S8. Compound 24 was further tested in the following functional assays at Eurofins. […]
Cav1.2 (L-type) human Ca ion channel cell based automated patch >30 µM clamp assay (CYL8051QP2DR) […]
(§7) FLIPR Assay expressed in HEK293 cells
(§8) GABAA α5/β3/γ2 ionotropic receptor (human GABRA5, GABRB3, >30 and GABRG2 genes, expressed in HEK293 cells

[4] = biological target: T4, CFTR cystic fibrosis transmembrane conductance regulator (Homo sapiens, UniProt P13569); assay: Ion channel profiling at Charles River: CFTR; assay type: cell-based; conditions: expressed in CHO cells; read-out: ESTIMATED IC50
T4 construct: host or cells: CHO cells
Experimental: (§9) 1.4.3 Ion Channel Profiling at Charles River
Table S9. Compound 24 was tested against the following ion channels at Charles River Laboratories. […]
FASTPatch Assay IK (KCa3.1) calcium-activated potassium channel (human KCNN4 >30 gene) expressed in CHO cells […]
CFTR cystic fibrosis transmembrane conductance regulator (Cl-channel encoded by human CFTR gene) expressed in CHO cells >30 […]
as §7, §8

Kv1.3 potassium channel = biological target: T5, Kv1.3 potassium channel (Homo sapiens, UniProt P22001); assay: Ion channel profiling at Charles River: Kv1.3; assay type: cell-based; conditions: expressed in CHO cells; read-out: ESTIMATED IC50
T5 construct: host or cells: CHO cells
Experimental: as §9
Table S9. Compound 24 was tested against the following ion channels at Charles River Laboratories.
ASSAY TYPE ION CHANNEL AND EXPRESSION SYSTEM ESTIMATED […]
ScreenPatch Assay Kv1.3 potassium channel (human KCNA3 gene) expressed in CHO […]
as §7
GABAA α5/β3/γ2 ionotropic receptor (human GABRA5, GABRB3, >30
and GABRG2 genes, expressed in HEK293 cells

Na+ channel (site 2) = assay: Cerep panel binding assay; set-up: species or system rat; conditions: 10 µM, antagonist radioligand
Experimental: (§10) 1.4 Safety Pharmacology of Compound 24
(§11) 1.4.1 Cerep panel (Eurofins)
(§12) Compound 24 was further profiled for its off-target interactions against a panel of 44 targets. The
(§13) screening was done by Eurofins Pharma Discovery within the SafetyScreen44 Panel (Cerep, ITEM
(§14) P270). In all assays binding/functional inhibition was determined at 10 µM.
(§15) Table S6. […]

5-HT2B (h) = biological target: T6, 5-HT2B (h) (Homo sapiens, UniProt P41595); assay: Cerep panel binding assay; conditions: agonist radioligand
T6 construct: purchased Eurofins Pharma Discovery (Cerep) SafetyScreen44 Panel, ITEM P270
Experimental: as §10, §11, §12, §13, §14, §15

A2A (h) = biological target: T7, A2A (h) (Homo sapiens, UniProt P29274); assay: Cerep panel binding assay; conditions: 10 µM, agonist radioligand
T7 construct: Eurofins Pharma Discovery (CRO that ran the assay) SafetyScreen44 Panel (Cerep, ITEM P270)
Experimental: as §10, §11, §12, §13, §14, §15

M2 (h) = biological target: T8, M2 (h) (Homo sapiens, UniProt P08172); assay: Cerep panel binding assay; conditions: antagonist radioligand
T8 construct: Eurofins Pharma Discovery (CRO that ran the assay) SafetyScreen44 Panel (Cerep, ITEM P270)
Experimental: as §10, §11, §12, §13, §14, §15

dopamine transporter (h) = biological target: T9, dopamine transporter (h) (Homo sapiens, UniProt Q01959); assay: Cerep panel binding assay; conditions: antagonist radioligand
T9 construct: purchased Eurofins Pharma Discovery (Cerep) SafetyScreen44 Panel, ITEM P270
Experimental: as §10, §11, §12, §13, §14, §15

[5] = Mouse maximum tolerated dose (MTD) study; assay type: in vivo, NMRI mice
Experimental: 1.4.6 Mouse Maximum tolerated dose (MTD) study (Aurigon)
The maximum tolerated dose of 24 in NMRI mice was conducted and analyzed at CRO ATRC Aurigon Toxicological Research Center Ltd, Hungary. The study was conducted in accordance with Standard Operating Procedures of ATRC and the requirements of EEC Directive 2001/83/EC of the European Parliament and of the Council of November 6, 2001 on the Community Code relating to Medicinal Products for human use (Official Journal L -311,28/11/2004, p.67–128) as amended by EEC Directive 2004/27/EC of the European Parliament and the Council of March 31, 2004 amending Directive 2001/83/EC on the Community code relating to medicinal products for human use (Official Journal L - 136, 30/04/2004, p. 34-57), ICH Guideline M3(R2) “Guidance on Nonclinical Safety Studies for the Conduct of Human Clinical Trials and Marketing Authorization for Pharmaceuticals”, ICH Guideline S3A “Toxicokinetics: The Assessment of Systemic Exposure in Toxicity Studies”, OECD Guideline for the Testing of Chemicals: Toxicokinetics, (OECD 417, 2010). This study was conducted in compliance with the principles of Hungarian Act 1998: XXVIII regulating animal protection (latest modified by Act 2011 CLVIII) and in Government Decree 40/2013 on animal experiments. Handling and care of the animals will be conducted according to the Guide for the Care and Use of Laboratory Animals, NRC, […]
Animals were 6 weeks old and weighed 27–34 g. 24 was applied subcutaneously in a formulation […]
48 h. As no clinical findings were observed, 30 mg/kg was then applied to the next group. Likewise, 60 mg/kg were applied 48 h after. Mortality was observed twice a day. Clinical observation was performed directly after dosing, 1 h, 2 h, 4 h, 24 h and 48 h after administration. Body weight was registered prior to treatment and daily after the dosing for 48 h. For serum concentration determination, 100 μL blood were collected from each animal at 0.5 h and 4 h time points after the administration, processed to plasma and analyzed using HPLC-MS/MS at HZI. Each group consisted of 5 male and 5 female mice, 2 of which were used for blood collection.

T1 sequence (P35869 11-848): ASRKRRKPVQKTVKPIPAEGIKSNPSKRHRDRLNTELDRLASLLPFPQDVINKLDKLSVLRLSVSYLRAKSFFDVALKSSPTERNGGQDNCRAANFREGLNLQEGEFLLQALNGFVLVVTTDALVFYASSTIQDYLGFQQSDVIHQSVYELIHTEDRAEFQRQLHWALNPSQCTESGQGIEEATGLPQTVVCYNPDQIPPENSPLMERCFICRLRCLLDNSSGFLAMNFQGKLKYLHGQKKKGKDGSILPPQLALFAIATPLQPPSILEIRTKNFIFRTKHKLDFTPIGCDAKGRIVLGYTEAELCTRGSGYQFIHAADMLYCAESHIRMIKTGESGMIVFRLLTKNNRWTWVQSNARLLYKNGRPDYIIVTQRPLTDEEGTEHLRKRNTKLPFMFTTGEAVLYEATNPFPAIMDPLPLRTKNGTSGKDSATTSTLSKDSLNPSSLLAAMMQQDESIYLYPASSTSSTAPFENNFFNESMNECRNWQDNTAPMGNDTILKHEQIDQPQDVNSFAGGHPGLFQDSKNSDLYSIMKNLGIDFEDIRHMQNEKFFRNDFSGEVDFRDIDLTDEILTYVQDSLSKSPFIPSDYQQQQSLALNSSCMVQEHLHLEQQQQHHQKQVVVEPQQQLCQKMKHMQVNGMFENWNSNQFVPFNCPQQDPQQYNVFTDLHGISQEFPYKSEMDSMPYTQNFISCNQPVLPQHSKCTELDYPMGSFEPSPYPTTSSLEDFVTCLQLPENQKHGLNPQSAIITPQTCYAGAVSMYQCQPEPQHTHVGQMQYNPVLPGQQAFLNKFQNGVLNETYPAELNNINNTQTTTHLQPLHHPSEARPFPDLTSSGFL
T3 sequence (Q13936 whole entry): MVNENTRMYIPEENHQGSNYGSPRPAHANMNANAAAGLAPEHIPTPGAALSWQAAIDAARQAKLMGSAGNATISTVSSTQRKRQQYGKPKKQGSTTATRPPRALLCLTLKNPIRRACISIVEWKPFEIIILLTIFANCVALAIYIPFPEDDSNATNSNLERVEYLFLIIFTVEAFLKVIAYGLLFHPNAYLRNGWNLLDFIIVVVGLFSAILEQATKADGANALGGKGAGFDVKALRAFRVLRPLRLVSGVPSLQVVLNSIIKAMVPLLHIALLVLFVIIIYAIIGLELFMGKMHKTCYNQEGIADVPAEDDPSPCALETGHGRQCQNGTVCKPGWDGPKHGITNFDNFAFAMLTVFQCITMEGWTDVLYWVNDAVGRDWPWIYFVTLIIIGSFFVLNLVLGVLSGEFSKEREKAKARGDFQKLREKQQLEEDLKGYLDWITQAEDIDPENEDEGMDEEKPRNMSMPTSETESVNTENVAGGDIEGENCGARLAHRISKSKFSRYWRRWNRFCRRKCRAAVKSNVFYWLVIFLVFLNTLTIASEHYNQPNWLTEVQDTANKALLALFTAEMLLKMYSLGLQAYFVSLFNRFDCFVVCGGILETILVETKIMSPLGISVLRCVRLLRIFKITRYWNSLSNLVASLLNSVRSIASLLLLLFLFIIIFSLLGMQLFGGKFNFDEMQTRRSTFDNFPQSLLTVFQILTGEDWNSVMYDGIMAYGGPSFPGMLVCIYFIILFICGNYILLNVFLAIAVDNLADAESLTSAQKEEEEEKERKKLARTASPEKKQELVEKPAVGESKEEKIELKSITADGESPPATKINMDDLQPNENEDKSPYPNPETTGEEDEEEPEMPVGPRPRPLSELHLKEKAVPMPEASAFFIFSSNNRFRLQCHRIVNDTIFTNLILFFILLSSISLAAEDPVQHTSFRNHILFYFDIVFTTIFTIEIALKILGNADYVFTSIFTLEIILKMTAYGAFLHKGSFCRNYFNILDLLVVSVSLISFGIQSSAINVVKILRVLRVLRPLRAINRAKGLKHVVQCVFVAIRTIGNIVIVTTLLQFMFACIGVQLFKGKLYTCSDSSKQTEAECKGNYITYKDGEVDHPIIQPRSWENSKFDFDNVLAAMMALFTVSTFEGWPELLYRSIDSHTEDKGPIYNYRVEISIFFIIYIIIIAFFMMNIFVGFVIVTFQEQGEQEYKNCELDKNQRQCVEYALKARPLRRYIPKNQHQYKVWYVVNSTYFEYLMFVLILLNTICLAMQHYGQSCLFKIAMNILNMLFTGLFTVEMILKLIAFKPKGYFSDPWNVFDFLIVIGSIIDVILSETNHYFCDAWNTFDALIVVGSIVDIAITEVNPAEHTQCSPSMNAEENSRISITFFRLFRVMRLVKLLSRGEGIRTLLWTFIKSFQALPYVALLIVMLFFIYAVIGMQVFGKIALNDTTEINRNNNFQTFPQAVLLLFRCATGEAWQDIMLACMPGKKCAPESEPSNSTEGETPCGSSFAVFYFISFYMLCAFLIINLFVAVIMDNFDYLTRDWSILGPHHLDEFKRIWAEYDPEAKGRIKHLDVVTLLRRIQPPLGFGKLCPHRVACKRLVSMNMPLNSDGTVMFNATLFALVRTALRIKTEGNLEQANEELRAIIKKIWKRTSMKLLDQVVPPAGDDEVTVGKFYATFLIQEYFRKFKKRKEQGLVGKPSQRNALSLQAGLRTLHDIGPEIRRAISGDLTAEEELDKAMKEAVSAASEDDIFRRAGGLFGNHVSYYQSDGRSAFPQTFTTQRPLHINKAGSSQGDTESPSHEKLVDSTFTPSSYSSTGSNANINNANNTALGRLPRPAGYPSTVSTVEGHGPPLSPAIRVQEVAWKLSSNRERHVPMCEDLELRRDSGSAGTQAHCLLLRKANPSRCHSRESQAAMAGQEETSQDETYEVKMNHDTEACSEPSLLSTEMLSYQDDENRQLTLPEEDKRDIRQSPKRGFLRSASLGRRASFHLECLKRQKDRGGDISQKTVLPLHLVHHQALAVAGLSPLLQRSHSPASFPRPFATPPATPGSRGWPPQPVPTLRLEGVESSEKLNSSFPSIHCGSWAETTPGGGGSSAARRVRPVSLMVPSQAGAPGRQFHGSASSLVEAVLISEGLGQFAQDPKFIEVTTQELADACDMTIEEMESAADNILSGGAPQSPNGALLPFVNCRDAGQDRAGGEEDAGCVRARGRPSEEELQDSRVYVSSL
T3 sequence (Q08289 whole entry partner): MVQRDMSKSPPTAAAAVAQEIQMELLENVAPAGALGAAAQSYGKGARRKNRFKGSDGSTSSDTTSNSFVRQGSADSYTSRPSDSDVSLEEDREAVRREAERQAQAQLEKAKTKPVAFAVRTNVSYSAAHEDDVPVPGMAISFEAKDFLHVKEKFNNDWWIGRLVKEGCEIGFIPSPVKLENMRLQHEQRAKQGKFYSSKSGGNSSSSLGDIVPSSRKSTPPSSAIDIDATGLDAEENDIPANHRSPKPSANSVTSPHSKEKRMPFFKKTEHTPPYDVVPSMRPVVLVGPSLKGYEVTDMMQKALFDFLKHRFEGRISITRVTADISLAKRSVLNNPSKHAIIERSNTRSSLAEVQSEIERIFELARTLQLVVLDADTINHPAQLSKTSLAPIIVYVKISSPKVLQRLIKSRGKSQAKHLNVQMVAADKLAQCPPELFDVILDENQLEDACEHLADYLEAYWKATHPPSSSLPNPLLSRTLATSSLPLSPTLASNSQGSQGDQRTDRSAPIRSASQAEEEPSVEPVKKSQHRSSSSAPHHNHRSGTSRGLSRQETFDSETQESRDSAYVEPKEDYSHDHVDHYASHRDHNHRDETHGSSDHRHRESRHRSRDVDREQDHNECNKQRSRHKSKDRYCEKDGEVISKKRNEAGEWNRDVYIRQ
T3 sequence (P54289 25-956 partner limits assumed): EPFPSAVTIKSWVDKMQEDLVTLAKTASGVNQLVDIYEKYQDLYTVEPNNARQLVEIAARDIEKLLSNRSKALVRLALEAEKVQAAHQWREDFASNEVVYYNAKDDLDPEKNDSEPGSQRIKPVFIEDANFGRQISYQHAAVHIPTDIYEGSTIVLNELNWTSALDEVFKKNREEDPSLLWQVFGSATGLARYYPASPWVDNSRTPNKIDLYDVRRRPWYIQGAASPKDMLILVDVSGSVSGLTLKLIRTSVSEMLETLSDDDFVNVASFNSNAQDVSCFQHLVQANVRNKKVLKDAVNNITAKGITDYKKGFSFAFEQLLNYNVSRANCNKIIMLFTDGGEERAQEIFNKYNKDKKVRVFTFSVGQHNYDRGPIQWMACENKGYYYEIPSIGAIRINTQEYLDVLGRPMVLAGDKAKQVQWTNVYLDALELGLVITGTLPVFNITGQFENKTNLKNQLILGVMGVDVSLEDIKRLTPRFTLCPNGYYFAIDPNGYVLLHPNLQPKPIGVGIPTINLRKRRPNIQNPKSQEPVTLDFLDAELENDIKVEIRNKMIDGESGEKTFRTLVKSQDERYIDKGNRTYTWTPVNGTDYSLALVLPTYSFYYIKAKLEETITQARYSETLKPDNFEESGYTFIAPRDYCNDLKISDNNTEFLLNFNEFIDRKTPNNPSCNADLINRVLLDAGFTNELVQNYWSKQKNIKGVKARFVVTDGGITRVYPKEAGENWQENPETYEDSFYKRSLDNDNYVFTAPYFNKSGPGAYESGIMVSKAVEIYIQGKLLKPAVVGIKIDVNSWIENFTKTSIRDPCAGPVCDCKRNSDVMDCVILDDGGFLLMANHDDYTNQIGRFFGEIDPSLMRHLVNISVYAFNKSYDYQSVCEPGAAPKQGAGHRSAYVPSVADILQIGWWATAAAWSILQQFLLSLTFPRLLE
T3 sequence (P54289 957-1103 partner limits assumed): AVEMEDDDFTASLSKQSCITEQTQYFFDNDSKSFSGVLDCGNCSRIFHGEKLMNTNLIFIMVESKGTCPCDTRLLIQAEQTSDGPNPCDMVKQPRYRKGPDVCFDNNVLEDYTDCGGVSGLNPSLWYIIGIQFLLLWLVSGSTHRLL

CC(C)Oc1ccc(-c2ncc(CNc3ccnc(C(F)(F)F)c3)cn2)cc1Cl [Compound 24]
Papp at 4 h [1]: 3.1 ± 0.28 ×10⁻⁶ cm/s | Plasma binding murine [2]: >99% | fold AhR receptor induction (AhR receptor; fold activation @1 × 10^−6 M): 0.91 @1 × 10^−6 M ^a) | AhR induction (AhR receptor; up to 25 × 10^−6 M): Neither AhR induction | IC50 (CYP2C19): > 25 µM | IC50 [3]: > 30 µM | IC50 [4]: > 30 µM | IC50 (Kv1.3 potassium channel): > 30 µM | BINDING (%) (Na+ channel (site 2)): 57.2% and > 50% | inhibition at 10 µM (5-HT2B (h)): 62.2% | BINDING (%) (A2A (h)): 2.2% | inhibition at 10 µM (M2 (h)): 0% | inhibition at 10 µM (dopamine transporter (h)): 22.7% | clinical findings ([5]; 60 mg kg^−1 subcutaneous, slight, transient, at 2 and 4 h): piloerection and decreased activity (3 of 10 mice) | mortality or loss of body weight ([5]; 10, 30, and 60 mg kg^−1 subcutaneous, during 48 h): no mortality or loss of body weight | clinical findings ([5]; 10 and 30 mg kg^−1 subcutaneous): devoid of any clinical findings | tolerability in male and female mice ([5]; up to 60 mg kg^−1 subcutaneous): well tolerated
